Data taken from patent US20130244963A1 (Portola Pharmaceuticals, Inc., priority 2010, published 2013).

Legend:
[1] = test system: CD69; assay: B cell activity in human whole blood: BCR-induced CD69 expression; type: cell-based; details: healthy normal volunteers, ex vivo
[2] = test system: SU-DHL4; assay: Induction of apoptosis, caspase 3 cleavage; type: cell-based
[3] = test system: Syk (Y525/526); assay: BCR-induced Syk (Y525/526) autophosphorylation in NHL cell lines; type: cell-based; details: Homo sapiens, SU-DHL-4; SU-DHL4; read-out: BCR-induced Syk (Y525/526) auto-phosphorylation (IC50)
[4] = test system: pAKT; assay: BCR-induced pAKT formation in NHL cell lines; type: cell-based; details: Homo sapiens, Ramos
[5] = test system: DHL4; assay: Viability of DLBCL cell line DHL4 by luminescent ATP detection (Cell Titer Glo); type: cell-based; details: single agents; three days; ATP luminescence
Description: The final concentration of solvent (DMSO) during experimental time course was 1%. The robotic system Biomek 2 was used for all pipetting steps. After three days at 37 degrees in a tissue culture incubator, viability of cells was determined by lysis and luminescent ATP detection. ATP detection was carried out by addition of 20 μL Cell Titer Glo (Promega) following the protocol provided by manufacturer.
The concentrations of the inhibitors required to obtain 50, 75 or 90 percent inhibition are plotted in an isobologram (Tallarida R J. Dose response relations in pharmacology, Chapman and Hall/CRC, 2000).

[6] = test system: collagen induced arthritis (CIA); assay: Rat Collagen Induced Arthritis (CIA) Model, hind paw inflammation score; type: in vivo; design: scale not given here
Excerpt: Holmdahl R, Lorentzen J C, Lu S, Olofsson P, Wester L, Holmberg J, et al. Arthritis in rats with non-immunogenic adjuvants as models for rheumatoid arthritis. […] On day 10, the rats were boosted with a second subcutaneous injection. Test article administration was initiated when at least one hind paw was inflamed (clinical arthritis score=1) and enrollment into a treatment group was designated as day 1 of the study for each individual animal (n=4 to 8/dose group). Progression of disease was evidenced by increased edema and erythema of one or both ankle joints, followed by the involvement of the metatarsal and interphalangeal joints. […] Hind paws were scored daily (inflammation score) for progression of disease and evaluated for histopathological changes in cartilage structure, cellularity, matrix glycoaminoglycans, and synovial inflammation at the end of the 16-day treatment course. […] In Tables below, mean scores are calculated for all animals in dosed group over the entire experimental time course.

[7] = test system: pERK; assay: B cell activity in human whole blood: BCR-induced pERK formation; type: cell-based; details: healthy normal volunteers, ex vivo
[8] = test system: pERK; assay: BCR-induced pERK formation in NHL cell lines; type: cell-based; details: Homo sapiens
[9] = test system: SU-DHL6; assay: Induction of apoptosis, caspase 3 cleavage; type: cell-based
[10] = test system: leukocytes; assay: Leukocyte rolling and adhesion in whole blood on collagen type 1 + JAM-C surface; type: cell-based, human; details: for percentage increase in fluorescence intensity over baseline: Compound 1 3 uM
Excerpt: Junction adhesion molecule C (JAM-C) mediates recruitment and adhesion of leukocytes to synovium of patients with rheumatoid arthritis (Rabquer B J, Arthritis Rheum, 2008; 58(10):3020-9). This is an important step in the etiology of rheumatoid arthritis and disruption of this activity may have therapeutic benefit in the treatment of patients with inflammatory diseases such as RA. In order to use an in-vitro experimental system to mimic migration and adhesion of leukocytes, we have used a collagen and JAM-C coated surface for the assay.
Leukocyte rolling and adhesion in human whole blood (from healthy normal volunteers or patients with rheumatoid arthritis) was monitored using real time fluorescence microscopy. […] Prior to experimentation, leukocytes were labeled in whole blood with Rhodamine 6G to permit visualization by fluorescence microscopy. The increase in fluorescence intensity is proportional to the amount of fluorescently labeled leukocytes recruited under the area of observation. […] For quantitation of inhibitory activity (TABLE), data are presented as percentage increase in fluorescence intensity over baseline 180 and 360 sec post initiation of the blood perfusion (see FIG. 4).

[11] = Lymphocyte counts in rats with bovine collagen antibody mediated inflammation; type: in vivo, rat
Excerpt: In 7 control rats treated with vehicle, lymphocyte count was […]. In 4 rats treated with dexamethasone, count=2.32×10^3/μL, p=0.42. However 3 out of 4 of rats did suffer from lymphopenia.

[12] = test system: pBLNK; assay: BCR-induced pBLNK formation in NHL cell lines; type: cell-based; details: Homo sapiens
[13] = test system: SU-DHL4; assay: Induction of apoptosis, Annexin V binding; type: cell-based
[14] = test system: SU-DHL6; assay: Induction of apoptosis, Annexin V binding; type: cell-based
[15] = test system: CD69; assay: Whole blood B cell activation (CD69) in RA patients with or without MTX; type: cell-based, human; details: blood from RA patients on stable doses of MTX (n=18) versus without MTX (n=14); anti IgD activation
Excerpt: In vitro study of whole blood B cell activation (CD69) in stable RA patients treated with MTX (n=18) or without MTX (n=14).

[16] = biological target: Src kinase (Homo sapiens, UniProt P12931); details: cited from earlier work
[17] = test system: JAK kinases; details: cited from earlier work
[18] = biological target: cKit (Homo sapiens, UniProt P10721); details: cited from earlier work
[19] = biological target: T1, Flt3 (Homo sapiens, UniProt P36888); details: cited from earlier work
T1 sequence (P36888 27-993): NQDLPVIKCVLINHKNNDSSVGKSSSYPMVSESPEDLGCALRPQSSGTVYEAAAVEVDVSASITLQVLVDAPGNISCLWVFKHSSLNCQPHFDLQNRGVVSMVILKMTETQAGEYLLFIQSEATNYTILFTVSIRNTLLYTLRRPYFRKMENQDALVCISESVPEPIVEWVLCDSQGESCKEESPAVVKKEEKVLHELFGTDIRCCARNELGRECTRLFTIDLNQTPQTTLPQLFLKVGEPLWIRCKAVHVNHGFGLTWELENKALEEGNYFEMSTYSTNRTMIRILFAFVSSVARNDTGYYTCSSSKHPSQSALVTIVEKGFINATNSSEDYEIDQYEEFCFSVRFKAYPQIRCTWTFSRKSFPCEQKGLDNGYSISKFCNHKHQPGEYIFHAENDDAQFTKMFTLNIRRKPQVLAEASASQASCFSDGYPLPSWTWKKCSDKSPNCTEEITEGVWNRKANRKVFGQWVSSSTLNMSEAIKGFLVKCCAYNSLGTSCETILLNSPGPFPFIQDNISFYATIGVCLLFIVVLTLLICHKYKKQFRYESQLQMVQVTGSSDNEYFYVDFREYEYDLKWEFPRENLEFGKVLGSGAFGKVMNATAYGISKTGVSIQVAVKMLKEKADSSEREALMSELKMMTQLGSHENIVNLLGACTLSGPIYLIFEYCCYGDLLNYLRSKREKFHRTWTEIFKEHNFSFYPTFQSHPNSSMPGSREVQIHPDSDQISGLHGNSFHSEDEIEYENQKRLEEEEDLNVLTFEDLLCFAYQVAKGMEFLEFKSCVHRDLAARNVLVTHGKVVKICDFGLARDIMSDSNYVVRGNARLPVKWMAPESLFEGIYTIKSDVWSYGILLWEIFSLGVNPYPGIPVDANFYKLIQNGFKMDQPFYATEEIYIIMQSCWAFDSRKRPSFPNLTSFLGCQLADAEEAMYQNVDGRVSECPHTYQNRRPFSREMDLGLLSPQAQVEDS

[20] = Compound 1 5 mg/kg, first experimental design (5/15/50 mg/kg)
[21] = Compound 1 5 mg/kg, second experimental design (5/10/15 mg/kg)
[22] = Compound 1 10 mg/kg, second experimental design (5/10/15 mg/kg)
[23] = Compound 1 15 mg/kg, first experimental design (5/15/50 mg/kg)
[24] = Compound 1 15 mg/kg, second experimental design (5/10/15 mg/kg)
[25] = Compound 1 50 mg/kg, first experimental design (5/15/50 mg/kg)

Sequence of cKit (P10721 26-976): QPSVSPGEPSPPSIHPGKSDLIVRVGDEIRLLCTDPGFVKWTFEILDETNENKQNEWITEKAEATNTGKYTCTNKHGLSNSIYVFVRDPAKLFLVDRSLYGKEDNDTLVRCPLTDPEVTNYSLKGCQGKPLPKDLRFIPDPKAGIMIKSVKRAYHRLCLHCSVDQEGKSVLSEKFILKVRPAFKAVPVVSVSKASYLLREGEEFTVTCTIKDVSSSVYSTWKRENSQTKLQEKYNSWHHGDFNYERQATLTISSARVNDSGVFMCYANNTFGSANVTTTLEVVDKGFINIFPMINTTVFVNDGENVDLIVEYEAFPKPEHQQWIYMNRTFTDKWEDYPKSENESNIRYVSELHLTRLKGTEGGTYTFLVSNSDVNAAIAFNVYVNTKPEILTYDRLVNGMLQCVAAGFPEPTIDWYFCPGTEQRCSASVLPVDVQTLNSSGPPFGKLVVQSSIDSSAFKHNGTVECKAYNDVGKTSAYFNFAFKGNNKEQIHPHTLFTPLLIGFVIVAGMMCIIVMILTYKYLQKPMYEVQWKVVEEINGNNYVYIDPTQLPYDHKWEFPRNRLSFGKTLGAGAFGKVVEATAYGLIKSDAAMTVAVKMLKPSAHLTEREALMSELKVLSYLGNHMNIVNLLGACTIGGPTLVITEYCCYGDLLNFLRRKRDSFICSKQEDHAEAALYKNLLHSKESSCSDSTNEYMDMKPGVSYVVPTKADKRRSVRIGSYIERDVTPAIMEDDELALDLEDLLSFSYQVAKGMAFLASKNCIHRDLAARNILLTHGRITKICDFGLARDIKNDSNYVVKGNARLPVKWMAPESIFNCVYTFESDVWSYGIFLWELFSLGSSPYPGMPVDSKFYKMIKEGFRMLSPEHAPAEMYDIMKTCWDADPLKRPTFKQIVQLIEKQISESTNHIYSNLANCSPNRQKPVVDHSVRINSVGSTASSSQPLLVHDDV
Sequence of Src kinase (P12931 whole entry): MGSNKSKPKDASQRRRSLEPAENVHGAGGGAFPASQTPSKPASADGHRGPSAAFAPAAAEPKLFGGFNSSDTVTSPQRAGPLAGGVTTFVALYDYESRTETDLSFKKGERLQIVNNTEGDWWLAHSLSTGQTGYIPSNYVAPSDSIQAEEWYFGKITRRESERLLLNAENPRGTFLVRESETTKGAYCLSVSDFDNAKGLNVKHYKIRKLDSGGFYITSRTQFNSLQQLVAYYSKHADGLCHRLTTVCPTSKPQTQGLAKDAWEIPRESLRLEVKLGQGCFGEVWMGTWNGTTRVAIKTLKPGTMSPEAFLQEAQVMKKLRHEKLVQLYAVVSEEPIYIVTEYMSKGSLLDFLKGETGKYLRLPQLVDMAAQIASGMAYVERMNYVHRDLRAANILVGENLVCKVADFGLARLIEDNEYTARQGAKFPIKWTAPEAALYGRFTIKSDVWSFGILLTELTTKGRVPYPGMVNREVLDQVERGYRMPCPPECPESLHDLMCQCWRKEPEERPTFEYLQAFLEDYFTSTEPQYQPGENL

In the case of NC(=O)c1cnc(N[C@@H]2CCCC[C@@H]2N)nc1Nc1cccc(-n2nccn2)c1 [Compound 1, 4-(3-(2H-1,2,3-triazol-2-yl)phenylamino)-2-((1R,2S)-2-aminocyclohexylamino)pyrimidine-5-carboxamide], the IC50 [1] is reported as 250 to 500 nM, the “Induction of apoptosis— caspase 3 cleavage (% +ve cells)” value [2] is reported as 26 % +ve cells and the IC50 [3] is reported as […]. For the same compound, the IC50 [4] was 0.05 to 0.125 µM, the “inhibitory activity on viability of DHL4 cells (in words)” value [5] was “dose responsive inhibitory activity” and the “Maximum Inflammation Score measurement” value [6, 20] was 5.625. For the same compound, the “Mean Inflammation Score” value [6, 20] was 4.868, the “Minimum Inflammation Score measurement” value [6, 20] was 1.5 and the “Maximum Inflammation Score measurement” value [6, 21] was 4.75. For the same compound, the “Mean Inflammation Score” value [6, 21] was 3.57, the “Minimum Inflammation Score measurement” value [6, 21] was 1.38 and the “Maximum Inflammation Score measurement” value [6, 22] was 3.00. For the same compound, the “Mean Inflammation Score” value [6, 22] was 2.15, the “Minimum Inflammation Score measurement” value [6, 22] was 1.13 and the “Maximum Inflammation Score measurement” value [6, 23] was 1.125. For the same compound, the “Mean Inflammation Score” value [6, 23] was 0.949, the “Minimum Inflammation Score measurement” value [6, 23] was 0.75 and the “Maximum Inflammation Score measurement” value [6, 24] was 1.38. For the same compound, the “Mean Inflammation Score” value [6, 24] was 1.016, the “Minimum Inflammation Score measurement” value [6, 24] was 0.63 and the “Maximum Inflammation Score measurement” value [6, 25] was 1.0. For the same compound, the “Mean Inflammation Score” value [6, 25] was 0.169, the “Minimum Inflammation Score measurement” value [6, 25] was 0 and the IC50 [7] was 250 to 500 nM. For the same compound, the IC50 ([8]; Ramos) was 0.05 to 0.125 µM, the IC50 ([8]; SU-DHL-6, SU-DHL6) was 0.1 µM and the “Induction of apoptosis— caspase 3 cleavage (% +ve cells)” value [9] was 47 % +ve cells. The “percentage increase in fluorescence intensity over baseline” value (from here on “percentage increase”) ([10]; RA patient #8 on Adalimumab, 180 sec, vehicle 51%) was 7%, the “percentage increase” value ([10]; RA patient #8 on Adalimumab, 360 sec, vehicle 94%) was 63% and the “percentage increase” value ([10]; RA patient #10 on Methotrexate, 180 sec, vehicle 44%) was 29%. The “percentage increase” value ([10]; RA patient #10 on Methotrexate, 360 sec, vehicle 107%) was 86%, the “percentage increase” value ([10]; RA patient #11 on Methotrexate + prednisone, 180 sec, vehicle 165%) was 69% and the “percentage increase” value ([10]; RA patient #11 on Methotrexate + prednisone, 360 sec, vehicle 178%) was 183%. The “percentage increase” value ([10]; RA patient #12 on Etanercept, 180 sec, vehicle 61%) was 17%, the “percentage increase” value ([10]; RA patient #12 on Etanercept, 360 sec, vehicle 131%) was 53% and the “number of adherent leukocytes (in words)” value ([10]; whole blood from RA patients (mild, moderate, severe) on standard of care, in vitro addition of 3 uM) was “reduces the number of adherent cells”. For the same compound, the “number of leukocytes adhering to collagen and JAM-C coated surface (in words)” value ([10]; whole blood from healthy donors without inflammatory disease) was “reduces the number of leukocytes adhering”, the “effect on lymphocyte counts” value ([11]; administered as a single agent) was “does not produce a reduction in lymphocyte counts” and the IC50 ([12]; SU-DHL-4, SU-DHL4) was 160 nM. For the same compound, the IC50 ([12]; SU-DHL-6, SU-DHL6) was 10 to 20 nM, the “Induction of apoptosis— Annexin V binding (% +ve cells)” value [13] was 15.5 % +ve cells and the “Induction of apoptosis— Annexin V binding (% +ve cells)” value [14] was 20.3 % +ve cells. For the same compound, the “Syk inhibitory potency in whole blood B cell activation (CD69)” value [15] was “higher (reduced IC50)”.
With C[C@@H]1C[C@H]2[C@@H]3CCC4=CC(=O)C=C[C@]4(C)[C@@]3(F)[C@@H](O)C[C@]2(C)[C@@]1(O)C(=O)CO [Dexamethasone, reference compound] the “Maximum Inflammation Score measurement” value ([6]; Dexamethasone 1 mg/Kg) was 1.50, the “Mean Inflammation Score” value ([6]; Dexamethasone 1 mg/Kg) was 0.188 and the “Minimum Inflammation Score measurement” value ([6]; Dexamethasone 1 mg/Kg) was 0.0. For the same compound, the “rats suffering from lymphopenia” value ([11]; Lewis, rat, in vivo, 16 day) was 3 out of 4 and the “lymphocyte count (group)” value ([11]; rat, in vivo) was 2320 µL⁻¹.
With COc1cccc2c1C(=O)c1c(O)c3c(c(O)c1C2=O)C[C@@](O)(C(=O)CO)C[C@@H]3O[C@H]1C[C@H](N)[C@H](O)[C@H](C)O1 [Doxorubicin, reference compound] the “inhibitory activity on viability of DHL4 cells (in words)” value [5] was “dose responsive inhibitory activity”.
For COc1cc(Nc2ncc(F)c(Nc3ccc4c(n3)N(COP(=O)(O)O)C(=O)C(C)(C)O4)n2)cc(OC)c1OC [Fostamatinib disodium], the “activity against Src kinase” value [16] is given as “not against Src kinsase”, the “activity against JAK kinases” value [17] is given as “active” and the “activity against cKit” value [18] is given as “active”. For the same compound, the “activity against Flt3” value [19] was “active”.
With CN(Cc1cnc2nc(N)nc(N)c2n1)c1ccc(C(=O)N[C@@H](CCC(=O)O)C(=O)O)cc1 [Methotrexate, reference compound] the “Maximum Inflammation Score measurement” value ([6]; Methotrexate 0.1 mg/kg) was 4.63, the “Minimum Inflammation Score measurement” value ([6]; Methotrexate 0.1 mg/kg) was 1.25 and the “Mean Inflammation Score” value ([6]; Methotrexate 0.1 mg/kg, all animals over entire time course) was 3.65. The “Maximum Inflammation Score measurement” value ([6]; Methotrexate 0.3 mg/kg) was 5.00, the “Minimum Inflammation Score measurement” value ([6]; Methotrexate 0.3 mg/kg) was 1.00 and the “Mean Inflammation Score” value ([6]; Methotrexate 0.3 mg/kg, all animals over entire time course) was 4.02. For the same compound, the “Maximum Inflammation Score measurement” value ([6]; Methotrexate 1.0 mg/kg) was 4.00, the “Minimum Inflammation Score measurement” value ([6]; Methotrexate 1.0 mg/kg) was 1.13 and the “Mean Inflammation Score” value ([6]; Methotrexate 1.0 mg/kg, all animals over entire time course) was 2.90. The “Maximum Inflammation Score measurement” value ([6]; Methotrexate 2.0 mg/kg) was 2.50, the “Minimum Inflammation Score measurement” value ([6]; Methotrexate 2.0 mg/kg) was 1.00 and the “Mean Inflammation Score” value ([6]; Methotrexate 2.0 mg/kg, all animals over entire time course) was 2.11.
